Measurements reported in patent EP4177246A1, “FUSED OXAZEPINES AS INHIBITORS OF PEROXIREDOXINS” (Centro Atlántico del Medicamento, SA, priority 2021, dated 2023).

Legend:
[1] = system: K562; assay: MTT cell viability assay, K562 cells; assay type: cell-based; details: Homo sapiens, 48 h drug exposure
How it was run: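 Human CML-derived K562 cells seeded at 1000-5000/well with 10% FBS, treated after 24 h with compound (10 to 0,01 µM) or 0.05% DMSO vehicle for 48 h. MTT (0.3 mg/ml) added 2-4 h at 37 °C, formazan dissolved in DMSO, OD 595 nm; IC50 from non-linear regression, 3 replicates.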

[2] = system: MDA-MB-231; assay: MTT cell viability assay, MDA-MB-231 cells; assay type: cell-based, human; details: Homo sapiens, 48 h drug exposure
How it was run: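 MDA-MB-231 cells seeded in FBS-supplemented medium, treated after 24 h with compound (10 to 0,01 µM; vehicle 0.05% DMSO) for 48 h at 37 °C. MTT (0.3 mg/ml) added for 2-4 h, formazan dissolved in DMSO, OD read at 595 nm. IC50 from non-linear regression of log concentration vs normalized response.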

[3] = system: PANC-1; assay: MTT cell viability assay, PANC-1 cells; assay type: cell-based; details: Homo sapiens, 48 h drug exposure
Experimental: PANC-1 [American Type Culture Collection (ATCC) reference number CRL-1469]. This a human cancer cell line derived from the pancreas of a person.
(§1) Cell viability was assayed by measuring the mitochondrial reduction of the tetrazolium salt 3-(4,5-methyltiazol-2yl)-2,5diphenyl-tetrazolium bromide] (MTT) (Applichen; A2231,0010) [Mosmann T. J Immunol Methods. 1983 16;65(1-2):55-63 (ref. 36); Chuan Y-C et al 2010. Oncogene. 29 (10), 1531-1542 (ref. 37)]. Cells were seeded in 96-well plates in medium (either RPMI, DMEM or McCoys depending on the recommendations from the ATCC) supplemented with 10% FBS (Lonza Cat. N°: 14-502F), 2mM L-Glut (Lonza Cat. N°: BE17-605E) and 100U/ml PEST (Lonza Cat. N°: DE17-605E) at a cell density of 1000-5000 cells/well (96 well plate). Cells were seeded at a density according to their exponential growth phase (normally 1000 to 5000/well). The cells were cultured at 37 °C in the dark in air containing 5% CO2. After 24h either vehicle (0.05% DMSO) or drug were added to culture medium at the indicated concentrations (10 to 0,01microM). After another 48 h, MTT (0.3 mg/ml) was added to cells, followed by incubation for 2-4h at 37 °C in the dark. The medium was then removed and the precipitated formazan was solubilized by the addition of DMSO (200 µL).
(§2) The optical density was measured at 595 nm with the iMark Microplate Reader (BioRad, USA). Data was expressed as percent growth above the level in controls and the results in figures were plotted as means ± SEM of each test point from 3 replicates.
(§3) Statistical analysis. The concentration of drug that provokes 50% reduction of cell viability (IC50) was determined by using non-linear regression analysis and data were fitted to a log concentration vs normalized response curve in GraphPad software v5 (San Diego, CA).

[4] = system: MCF-7; assay: MTT cell viability assay, MCF-7 cells; assay type: cell-based; details: Homo sapiens, MCF7, 48 h drug exposure
Experimental: as §1, §2, §3

[5] = system: DU-145; assay: MTT cell viability assay, DU-145 cells; assay type: cell-based; details: Homo sapiens, 48 h drug exposure
Experimental: DU-145 [American Type Culture Collection (ATCC) reference number HTB-81]. This a human prostate cancer cell line derived from a metastatic site (brain) of a person.
as §1, §2, §3

[6] = system: PRDX1 and/or PRDX2; assay: Resin-bound affinity chromatography with competition/elution by free compound (type of binding); design: species or system human; details: MDA-MB-231 cell lysates; pre-incubation 1.5 hours with 50 micrograms of free compound; SDS-PAGE, silver staining
Experimental: The immobilization of compound (24) and the identification of its targets was accomplished using a previously described method [Orive-Ramos A, Seoane S, Ocaña A, Pandiella A, Montero JC. Regulation of the prometastatic neuregulin-MMP13 axis by SRC family kinases: therapeutic implications. Mol Oncol. 2017 Dec; 11(12): 1788-1805] (ref. 32). Briefly, 5 mg of the compound was dissolved in a coupling solution (50% dimethylformamide, 50% 0.1 M Na2CO3), and incubated with 0.5 mg of epoxy-activated sepharose 6B (GE Healthcare Life Sciences; Piscataway, NJ, USA), obtaining a CM728-coupled resin. A control resin was prepared without the compound (uncoupled). Both resins were incubated with 25 mg of cell extracts from MDA-MB-231 and BT-549 cancer cells.
The resulting complexes were retrieved by centrifugation, washed with lysis buffer, re-suspended and boiled in loading buffer and resolved in SDS-PAGE. The gel was silver stained and the bands of interest were excised, digested by trypsin (Figure 1). […]
In another experiment the resins collected after being incubated with cell lysates (analyzed in lanes 1 and 2) were further treated with free compound 24 to elute non-covalent compound 24 specific, binding proteins. […]

[7] = biological target: T1, PRDX1 (Homo sapiens, UniProt Q06830); assay: Western blot of monomeric/dimeric and oxidized forms of PRDX1 in treated cells; assay type: cell-based; details: 1 µM, MDA-MB-231 cells
T1 construct: treatment of untreated MDA-MB-231 cell lysates with a resin coupled to compound 24; endogenous in cells; host or cells: MDA-MB-231 (ATCC HTB-26)
T1 sequence (Q06830 1-199): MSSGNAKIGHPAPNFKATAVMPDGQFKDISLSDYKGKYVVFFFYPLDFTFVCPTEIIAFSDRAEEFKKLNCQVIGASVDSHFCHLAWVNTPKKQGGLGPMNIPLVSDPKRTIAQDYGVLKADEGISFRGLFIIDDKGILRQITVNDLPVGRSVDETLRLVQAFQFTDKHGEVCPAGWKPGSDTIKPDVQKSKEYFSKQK
Experimental: To that end, compound 24 1 µM was added to MDA-MB-231 cells and followed by Western Blot analysis. β-actin was used as control.
Non-reducing and reducing conditions used are those commonly used to assess the status of PRDX1 (see ref. 34 and 35) ref. 35

## O=C1C2=C(C(=O)c3c(O)ccc(O)c31)N(c1cccnc1)Cc1ccccc1O2 [Compound 24, 7,10-dihydroxy-12-(pyridin-3-yl)-12,13-dihydrobenzo[f]naphtho[2,3-b][1,4]oxazepine-6,11-dione]
[1]
  IC50: 0.1 µM
[2]
  IC50: 0.09 µM
[3]
  IC50: 0.32 µM
[4]
  IC50: 1.72 µM
[5]
  IC50: 3.19 µM
[6]
  manner in which compound binds to PRDX1 and/or PRDX2: non-reversible covalent manner
[7]; non-reducing conditions
  conversion of PRDX1 monomeric form into dimeric form: a rapid conversion of PRDX1 from its basal active monomeric form, into its inactive dimeric form
[7]; reducing conditions
  levels of hyperoxidized PRDX1 (SO2/3-Prdx): a significant increase in the levels of inactive hyperoxidized 2-cystiene PRDX1
